Assay results reported in publication PMC12754617, “Ruthenium-enhanced curcumin derivatives target tumor growth and cancer-related inflammation in head and neck cancer models” (Frontiers in Oncology, 2025).
Like-named read-outs stand apart in the source and are kept apart here.

Columns and labels:
[1] = test system: FaDu; assay: MTT viability assay; assay type: cell-based, human
Experimental: A colorimetric 3-(4,5-dimethylthiazolyl)-2,5-diphenyltetrazolium bromide (MTT) cell metabolic activity assay was used to assess the cytotoxicity of complexes 3 and 4. The cells (described above) were cultured under standard conditions. Cells were seeded in 96-well plates at a density of 10,000 cells per well (200 μL) and allowed to grow for 24 h. The medium was then replaced with medium containing complex 3 or 4 at a concentration ranging from 0 to 200 μM, and the cells were incubated for an additional 24, 48, and 72 h. Subsequently, the medium was replaced with MTT solution, consisting of yellow tetrazolium dye 3-(4,5-dimethylthiazol-2-yl)-2,5-diphenyltetrazolium bromide (Sigma-Aldrich, Merck, Germany), and incubated for 2 h at 37°C. The dye was then removed, and the resulting purple formazan formed in viable cells was dissolved in DMSO, followed by shaking for 30 s. Absorbance was measured at 570 nm using an […] 200 PRO microplate reader (TECAN, Männedorf, Switzerland). All experiments were performed in quadruplicate and repeated three times.
The cell inhibitory concentration (IC) was calculated using the equation IC = (Acomplex3/complex4 well/mean Acontrol wells) × 100%. The half-maximal inhibitory concentration (IC50) was determined from dose–response curves using GraphPad Prism 10 (GraphPad Software Inc., La Jolla, CA, USA). The selectivity index toward cancer cells was calculated as a ratio of the average IC50 value for HGF to the IC50 value for the corresponding cancer cell line.

[2] = biological target: T1, NF-κB p65 (Homo sapiens, UniProt Q04206); assay: Intracellular p65-NF-κB ELISA (DNA-binding activity); assay type: cell-based
T1 construct: endogenous in cells; host or cells: THP1-Blue NF-κB cells
Excerpt: To determine NF-κB p65 transcription factor levels by enzyme-linked immunosorbent assay (ELISA), an assay kit was used (Abcam, ab133112, Cambridge, UK). […] The supernatants were collected and used for the determination of intracellular p65-NF-κB by ELISA.
In this assay, a specific double-stranded DNA (dsDNA) sequence containing the NF-κB p65 response element is immobilized onto the wells of a 96-well plate. NF-κB p65 present in the sample binds specifically to these response elements. Bound p65 is subsequently detected using a primary antibody specific for NF-κB p65, followed by a horseradish peroxidase (HRP)-conjugated secondary antibody. The relevant background values were subtracted from the measured values. Absorbance was measured at 450 nm using an […] 200 PRO microplate reader (Tecan, Switzerland).

[3] = test system: HGF; assay: Colony formation assay; assay type: cell-based, human; settings: 24 h treatment at IC50
Experimental: (§1) Cells were seeded in six-well plates at a density of 100,000 cells per well (10,000 cells/200 μL) and grown for 24 h. […] Subsequently, cells were reseeded in new six-well plates at a density of 500 cells per well and grown for approximately 2 weeks. The cell culture medium was replaced every 2–3 days. When visible colonies appeared in the six-well plates, the culture was terminated, and the cells were washed twice with ice-cold PBS. The cells were then fixed with ice-cold methanol for 10 min and stained with 0.5% crystal violet solution for 30 min at room temperature. Experiments were performed in four independent replicates. The results were analyzed using the ImageJ plugin ColonyArea, which is optimized for standard analysis of colony formation assays. The plugin processes each well individually and determines not the number of colonies, but the area of the well covered by cells, also considering staining intensity.

[4] = test system: CAL 27; assay: Colony formation assay; assay type: cell-based, human; settings: CAL 27, 24 h treatment at IC50
Experimental: as §1

[5] = test system: TR146; assay: Colony formation assay; assay type: cell-based, human; settings: TR146, 24 h treatment at IC50
Experimental: as §1

[6] = test system: Detroit 562; assay: Colony formation assay; assay type: cell-based, human; settings: Detroit 562, 24 h treatment at IC50
Experimental: as §1

[7] = test system: FaDu; assay: Colony formation assay; assay type: cell-based, human; settings: 24 h treatment at IC50
Experimental: as §1

[8] = biological target: T2, IL-6 (Homo sapiens, UniProt P05231); assay: Sandwich ELISA assay IL-6; assay type: binding; settings: 15 μM, 500 pg/mL IL-6
T2 construct: purchased PeproTech, Thermo Fisher Scientific
Experimental: Human ELISA kits for IL-6, IL-6R, and IL-8 (Sigma-Aldrich, Merck, Germany) were used to quantify cytokine levels after treatment with complex 3 or 4. Briefly, 96-well plates precoated with specific antibodies were used to capture IL-6, IL-6R, and IL-8 from samples. […] Each sample was supplemented with 500 pg/mL of IL-6/IL-6R/IL-8. Positive control wells contained only the IL-6/IL-6R/IL-8 standard (PeproTech, Thermo Fisher Scientific, Waltham, Massachusetts, USA). […] After incubation, wells were washed, and biotinylated antihuman antibodies were added, followed by washing and addition of HRP-conjugated streptavidin. Finally, the TMB substrate was added to develop a color proportional to the cytokine concentration, and the reaction was stopped with the stop solution. Absorbance was measured at 450 nm using an […] 200 PRO microplate reader (TECAN, Switzerland).

T1 sequence (Q04206 whole entry): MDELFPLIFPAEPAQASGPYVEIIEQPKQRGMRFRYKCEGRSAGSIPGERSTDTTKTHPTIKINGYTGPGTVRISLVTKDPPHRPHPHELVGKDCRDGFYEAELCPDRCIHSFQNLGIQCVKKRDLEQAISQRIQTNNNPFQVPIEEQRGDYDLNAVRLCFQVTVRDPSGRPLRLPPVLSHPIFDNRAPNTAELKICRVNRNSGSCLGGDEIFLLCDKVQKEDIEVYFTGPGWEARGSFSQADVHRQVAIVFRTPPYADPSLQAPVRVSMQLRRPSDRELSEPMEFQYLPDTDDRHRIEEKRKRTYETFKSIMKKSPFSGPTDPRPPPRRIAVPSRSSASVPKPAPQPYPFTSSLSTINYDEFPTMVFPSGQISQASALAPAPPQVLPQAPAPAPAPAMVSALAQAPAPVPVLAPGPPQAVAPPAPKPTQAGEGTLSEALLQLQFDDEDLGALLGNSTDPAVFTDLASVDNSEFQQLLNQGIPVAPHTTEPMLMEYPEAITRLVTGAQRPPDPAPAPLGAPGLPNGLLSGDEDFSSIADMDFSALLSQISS
T2 sequence (P05231 30-212): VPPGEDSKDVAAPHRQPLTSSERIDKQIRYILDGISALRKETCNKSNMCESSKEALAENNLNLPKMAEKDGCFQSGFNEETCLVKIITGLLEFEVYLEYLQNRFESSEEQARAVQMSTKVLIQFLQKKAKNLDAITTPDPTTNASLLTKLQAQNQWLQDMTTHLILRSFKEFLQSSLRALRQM

Compound | IC50 ([1]; 24 h, read-out: IC50 24h) [µM] | IC50 ([1]; 48 h, read-out: IC50 48h) [µM] | IC50 ([1]; 72 h, read-out: IC50 72h) [µM] | Reduction of NF-κB (p65) levels ([2]; 1 μM, cellular extracts of THP1-Blue NF-κB cells, LPS) | NF-κB (p65) detected in cellular extracts ([2]; 8 μM) | Cloning efficiency (%) [3] [%] | Cloning efficiency (%) [4] [%] | Cloning efficiency (%) [5] [%] | Cloning efficiency (%) [6] [%] | Cloning efficiency (%) [7] [%] | Decrease of IL-6 concentration [8]
Cc1ccc(C(C)C)cc1.Cc1ccc(C(C)C)cc1.O=C1C(=Cc2ccnc3ccccc23)COCC1=Cc1ccnc2ccccc12.[Cl][Ru][Cl].[Cl][Ru][Cl] [Complex 3] | 8.65 | 5.75 ± 0.06 | 3.85 ± 0.24 | approximately 70% | less than 5% | 95 ± 6 | 39 ± 7 | 66 ± 19 | 57 ± 8 | 73 ± 15 | –
Cc1ccc(C(C)C)cc1.Cc1ccc(C(C)C)cc1.O=C1C(=Cc2cccnc2)CCC1=Cc1cccnc1.[Cl][Ru][Cl].[Cl][Ru][Cl] [Complex 4] | 25.9 ± 0.25 | 17.1 ± 2.24 | 21.6 ± 0.73 | – | – | – | – | – | – | – | approximately 30%
